Experiments:
TEAD2 YAP50-100 = TEAD2 YAP50-100 (Homo sapiens, UniProt Q15562); assay: TEAD2:YAP50-100 protein-protein interaction HTRF (TR-FRET) assay; details: His-tagged TEAD YAP binding domain (aa 217-447), biotinylated YAP peptide aa 50-100; 30 min pre-incubation, 60 min at room temperature; read-out: TEAD2 YAP50-100 HTRF WuXi EC50
Experimental: (§1) Purified His-tagged TEAD protein (YAP Binding Domain, amino acids 217-447) is pre-incubated with Europium labelled anti-His antibody tracer (Perkin Elmer Cat #AD0110). Small molecule Inhibitors are then incubated with the TEAD-Eu protein complex for 30 minutes to allow for binding to TEAD protein. Biotinylated YAP peptide (AA's 50-100) that has been pre-incubated with streptavidin x1665 acceptor (CIS-Bio Cat #610SAXAC) is added to the compound-TEAD mix. The TEAD-YAP-inhibitor mixture is then incubated for 60 minutes at room temperature. All reactions are carried out in a polystyrene plate. After 60 minutes, the plate is read on a plate reader using TR-FRET mode with wavelengths of 665 nm/615 nm. If YAP binds to TEAD as expected, a TR-FRET signal results from the proximity of YAP and TEAD after binding. If an inhibitor such as peptide 17 (Selleckchem Cat #S8164) interferes with YAP-TEAD binding, the disruption of the YAP:TEAD interaction results in a decrease in TR-FRET signal. The potency of compounds as YAP:TEAD protein-protein interaction (PPi) inhibitors is determined by an IC50 or EC50 value generated using a non-linear four parameter curve fit.

TEAD3 YAP50-100 = TEAD3 YAP50-100 (Homo sapiens, UniProt Q99594); assay: TEAD3:YAP50-100 protein-protein interaction HTRF (TR-FRET) assay; details: His-tagged TEAD YAP binding domain (aa 217-447), biotinylated YAP peptide aa 50-100; 30 min pre-incubation, 60 min at room temperature; read-out: TEAD3 YAP50-100 HTRF WuXi EC50
Experimental: as §1

Chain of TEAD3 YAP50-100 (Q99594 216-435 limits assumed): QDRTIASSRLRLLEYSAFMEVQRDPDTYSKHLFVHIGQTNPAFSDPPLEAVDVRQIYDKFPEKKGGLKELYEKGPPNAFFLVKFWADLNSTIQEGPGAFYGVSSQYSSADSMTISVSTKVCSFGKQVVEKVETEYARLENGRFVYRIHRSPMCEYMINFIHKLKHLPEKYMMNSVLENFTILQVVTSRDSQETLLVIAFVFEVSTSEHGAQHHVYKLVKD
Chain of TEAD2 YAP50-100 (Q15562 217-447): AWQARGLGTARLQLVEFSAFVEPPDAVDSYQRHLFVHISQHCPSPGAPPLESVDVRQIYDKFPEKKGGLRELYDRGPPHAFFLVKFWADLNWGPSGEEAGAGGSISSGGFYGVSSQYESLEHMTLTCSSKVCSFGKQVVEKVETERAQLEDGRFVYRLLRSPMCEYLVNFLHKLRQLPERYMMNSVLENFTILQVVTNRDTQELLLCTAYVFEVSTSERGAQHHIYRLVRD

Row | Structure (SMILES) | EC50 (TEAD2 YAP50-100) | EC50 (TEAD3 YAP50-100)
1 | CCOC(=O)c1cnn2c(=O)cc(-c3ccc(Oc4ccccc4)cc3)[nH]c12 [Example 15, Ethyl 7-oxo-5-(4-phenoxyphenyl)-4,7-dihydropyrazolo[1,5-a]pyrimidine-3-carboxylate] | 836 nM | 532 nM
2 | CCOC(=O)c1cnn2c(=O)cc(-c3ccc(OC(C)C)cc3)[nH]c12 [Example 31, Ethyl 5-(4-isopropoxyphenyl)-7-oxo-4,7-dihydropyrazolo[1,5-a]pyrimidine-3-carboxylate] | 4040 nM | 944 nM
3 | C[C@H]1[C@@H](CF)CN1C(=O)c1cnn2c(=O)cc(-c3ccc(C4CCCCC4)cc3)[nH]c12 (single isomer, unassigned) [Example 45] | 8 nM | 43 nM
4 | C[C@@H]1[C@H](CF)CN1C(=O)c1cnn2c(=O)cc(-c3ccc(C4CCCCC4)cc3)[nH]c12 (single isomer, unassigned) [Example 46] | 755 nM | 3100 nM
5 | CC1(O)CN(C(=O)c2cnn3c(=O)cc(-c4ccc(C5CCCCC5)cc4)[nH]c23)C1 [Example 9, 5-(4-Cyclohexylphenyl)-3-(3-hydroxy-3-methylazetidine-1-carbonyl)pyrazolo[1,5-a]pyrimidin-7(4H)-one] | 333 nM | 1300 nM
6 | CCN(C)C(=O)c1cnn2c(=O)cc(-c3ccc(C4CCCCC4)cc3)[nH]c12 [Example 6, 5-(4-Cyclohexylphenyl)-N-ethyl-N-methyl-7-oxo-4,7-dihydropyrazolo[1,5-a]pyrimidine-3-carboxamide] | 67 nM | 18 nM
7 | CCOC(=O)c1cnn2c(=O)cc(-c3ccc(C(F)(F)F)c(C)c3)[nH]c12 [Example 26, Ethyl 5-(3-methyl-4-(trifluoromethyl)phenyl)-7-oxo-4,7-dihydropyrazolo[1,5-a]pyrimidine-3-carboxylate] | 956 nM | 1410 nM
8 | CCOC(=O)c1cnn2c(=O)cc(-c3ccc(-c4ccccc4)cc3)[nH]c12 [Example 34, Ethyl 5-([1,1^1-biphenyl]-4-yl)-7-oxo-4,7-dihydropyrazolo[1,5-a]pyrimidine-3-carboxylate] | 1030 nM | 41 nM
9 | CN(C)C(=O)c1cnn2c(=O)cc(-c3ccc(C4CCCC4(C)C)cc3)[nH]c12 (single isomer, unassigned) [Example 22] | 378 nM | 42 nM

Further compounds by falling EC50 (TEAD2 YAP50-100), results first:

Row | EC50 (TEAD2 YAP50-100) | EC50 (TEAD3 YAP50-100) | Structure (SMILES)
10 | 747 nM | 666 nM | CCOC(=O)c1cnn2c(=O)cc(-c3ccc(Oc4ccccc4)c(C)c3)[nH]c12 [Example 14, Ethyl 5-(3-methyl-4-phenoxyphenyl)-7-oxo-4,7-dihydropyrazolo[1,5-a]pyrimidine-3-carboxylate]
11 | 548 nM | 72 nM | O=C(c1cnn2c(=O)cc(-c3ccc(C4CCCCC4)cc3)[nH]c12)N1CC(O)C1 [Example 10, 5-(4-Cyclohexylphenyl)-3-(3-hydroxyazetidine-1-carbonyl)pyrazolo[1,5-a]pyrimidin-7(4H)-one]
12 | 249 nM | 124 nM | CCOC(=O)c1c(C(C)C)nn2c(=O)cc(-c3ccc(Oc4ccccc4)cc3)[nH]c12 [Example 29, Ethyl 2-isopropyl-7-oxo-5-(4-phenoxyphenyl)-4,7-dihydropyrazolo[1,5-a]pyrimidine-3-carboxylate]
13 | 220 nM | 21 nM | CN(C)C(=O)c1cnn2c(=O)cc(-c3ccc(C4CCCC4(C)C)cc3)[nH]c12 (single isomer, unassigned) [Example 21]
14 | 211 nM | 3510 nM | O=C(NC1CC1)c1cnn2c(=O)cc(-c3ccc(C(F)(F)F)cc3)[nH]c12 [Example 27, N-Cyclopropyl-7-oxo-5-(4-(trifluoromethyl)phenyl)-4,7-dihydropyrazolo[1,5-a]pyrimidine-3-carboxamide]

— patent publication US20210238184A1, “THERAPEUTIC COMPOUNDS” (Genentech, Inc., priority 2018, published 2021)
